Source: US6737407B1, “Treatment of obesity” (Metabolic Pharmaceuticals, Ltd., priority 1997, dated 2004)
Where no end group is shown, it is not given here.

Columns and labels:
[1] = tested on: hormone-sensitive lipase; assay: Hormone-sensitive lipase (HSL) assay in isolated adipocytes; format: cell-based, rat
Description: The enzyme was expressed as U/mg protein, where the release of 1 nmole of oleic acid per hour was considered as 1 Unit of enzyme activity.
Hormone-sensitive lipase (HSL) activity of isolated adipocytes was used as a model to evaluate the lipolytic effect of hGH 177-191 peptide and analogues. In this assay [C^14]-triolein was used as a substrate by HSL. The amount of hydrolyzed [C^14]-oleic acid was determined and used as an index of HSL activity.
The adipocytes were prepared from the epididymal fat pads of male Zucker fatty (fa/fa) rats by collagenase digestion. Fat pads (5 g) were finely-cut into small (2-3 mm) pieces and placed in a siliconised glass vial containing 10 ml digestion medium. […] The isolated adipocytes were resuspended with 10 ml collagen-free buffer and the concentration of adipocytes was estimated by counting an aliquot of a pre-determined volume of cells on a microscope slide. […]
The HSL activity was measured at 37° C. for 1 hour in a final volume of 200 μl, containing 10 μmoles phosphate buffer (pH 7.0). […] The [C^14]-radioactivity was measured by a liquid scintillation counter. […] The HSL activity was expressed as U/mg protein, where the release of 1 nmole of oleic acid per hour was defined as 1 U of enzyme activity.

[2] = tested on: acetyl-CoA carboxylase; assay: Acetyl-CoA carboxylase assay in isolated adipocytes and hepatocytes; format: cell-based, rat
Description: Acetyl-CoA carboxylase catalyzes the critical step in fatty acid synthesis. The acetyl-CoA carboxylase activities of both isolated adipocytes and hepatocytes in the presence of hGH 177-191 peptide or analogues were measured for the evaluation of the anti-lipogenic effect of the peptides. The acetyl-CoA carboxylase activity was determined by the [C^14]-bicarbonate fixation reaction—the rate of incorporation of acetyl-CoA dependent H[C^14]O3 into [C^14]-malonyl-CoA.
Adipocytes were prepared with the method described in the HSL assay. Hepatocytes were prepared from the livers of male Wistar rats by collagenase digestion. The liver was finely-cut with scissors and transferred to a 250 ml Erlenmeyer flask containing 30 ml of digestion medium. The digestion medium contained microbial collagenase (Type IV) at a concentration of 30 mg/ml in calcium-free Krebs-Ringer phosphate buffer (pH 7.4) and glucose (5 mM). […]
The isolated cells were first preincubated at 37° C. for 30 minutes in a mixture containing 50 mM Tris-HCl buffer (pH 7.5), 10 mM potassium citrate, 10 mM MgCl2, 1 mM dithiothreitol (DTT), and BSA (0.8 mg/ml). […] The [C^14] radioactivity was measured with a liquid scintillation counter. […] Specific activity of the enzyme was expressed as mU/g cell dry weight, where 1 U of acetyl-CoA carboxylase was defined as that amount which catalyzed the carboxylation of 1 μmole acetyl-CoA per minute.

[3] = tested on: Porcine adipose Tissue; assay: Lipolytic activity in porcine adipose tissue; format: cell-based, pig; details: 0.5 μM peptide
Description: Adipose tissues were removed from animals and sliced into segments of approximately 200 mg each. Then the tissues were pre-incubated in 25 ml vials containing 2 ml of Krebs-Ringerbicarbonate (KRB) buffer, 4% defatted BSA and 5.5 mM glucose under an atmosphere of carbogen (95%O2/ 5%CO2) at 37° C. for 1 hour. Tissues were then transferred to another vials with fresh medium and the incubation was initiated by adding hGH 177-191 peptide or analogues into the vials. The mixtures were then incubated at 37° C. for 90 minutes. After incubation, the tissues wee removed and aliquots (200 μl) of samples withdrawn from the medium were assayed for the contents of glycerol or free fatty acid (FFA) either by the enzyme assay (glycerol kinase) or calorimetric (copper-dye) spectrometry. The NADH or color produced was then monitored by the absorption at 340 nm and 610 nm, respectively.
Since corresponding sequences of non-human mammals are effectively peptide variants of the human sequence, it is also therefore expected that those corresponding sequences will be effective in other mammals including humans.

effect on hormone-sensitive lipase (in words) [1]: effective in stimulating
effect on acetyl CoA carboxylase (in words) [2]: inhibiting
Sequence: LRIVQCRSVEGSCGF (cysteine pairing not given here) [Ref No. 9401]
Glycerol released [3]: 1300 ± 160 nmol/mg tissue/hour
